Consider 9 compounds from US20220235043A1, “SUBSTITUTED SULFONAMIDE PYRROLOPYRIDINES AS JAK INHIBITORS” (ACLARIS THERAPEUTICS, INC., priority 2019, published 2022).

For one experiment, the target named is T1, JAK1 (Homo sapiens, UniProt P23458).
T1 construct: purchased Thermo Fisher Scientific (SelectScreen service)
The experiment in a line: JAK1 enzyme activity assay (Thermo Fisher Selectscreen, Z-lyte). In kind it is biochemical. To be noted: read-out: JAK1 Inhibition IC50. How it is done:
(§1) The inhibitory potency of candidate compounds of JAK1, JAK2, and Tyk-2 was done at Thermo Fisher Scientific in their Selectscreen using a Z-lyte assay. Following are the assay details for each enzyme.
JAK1: The 2×JAK-enzyme/Tyr 06 mixture is prepared in 50 mM HEPES pH 6.5, 0.01% BRIJ-35, 10 mM MgCl2, 1 mM EGTA, 0.02% NaN3. The final 10 μL of the Kinase Reaction consists of 21.2-91.5 ng JAK1 and 2 μM Tyr 06 in 50 mM HEPES pH 7.0, 0.01% BRIJ-35, 10 mM MgCl2, 1 mM EGTA, 0.01% NaN3. After the one hour Kinase Reaction incubation, 5 μL of a 1:128 dilution of Development Reagent is added.
(§2) Data reduction for JAK1, JAK2 and TYK2 is done the same, independent of the enzyme run. In summary, background signal is defined in the absence of enzyme and uninhibited signal is defined in the presence of vehicle (2% DMSO) alone. Compounds were evaluated in an 11 point dose-response ranging from […] to 0.34 nM. IC50 values of compounds are determined using a 4 parameter logistical fit of emission ratio as a function of the concentration of compound.

A further experiment deals with T2, JAK2 (Homo sapiens, UniProt O60674).
T2 construct: purchased Thermo Fisher Scientific (SelectScreen service)
T2 sequence (O60674 whole entry): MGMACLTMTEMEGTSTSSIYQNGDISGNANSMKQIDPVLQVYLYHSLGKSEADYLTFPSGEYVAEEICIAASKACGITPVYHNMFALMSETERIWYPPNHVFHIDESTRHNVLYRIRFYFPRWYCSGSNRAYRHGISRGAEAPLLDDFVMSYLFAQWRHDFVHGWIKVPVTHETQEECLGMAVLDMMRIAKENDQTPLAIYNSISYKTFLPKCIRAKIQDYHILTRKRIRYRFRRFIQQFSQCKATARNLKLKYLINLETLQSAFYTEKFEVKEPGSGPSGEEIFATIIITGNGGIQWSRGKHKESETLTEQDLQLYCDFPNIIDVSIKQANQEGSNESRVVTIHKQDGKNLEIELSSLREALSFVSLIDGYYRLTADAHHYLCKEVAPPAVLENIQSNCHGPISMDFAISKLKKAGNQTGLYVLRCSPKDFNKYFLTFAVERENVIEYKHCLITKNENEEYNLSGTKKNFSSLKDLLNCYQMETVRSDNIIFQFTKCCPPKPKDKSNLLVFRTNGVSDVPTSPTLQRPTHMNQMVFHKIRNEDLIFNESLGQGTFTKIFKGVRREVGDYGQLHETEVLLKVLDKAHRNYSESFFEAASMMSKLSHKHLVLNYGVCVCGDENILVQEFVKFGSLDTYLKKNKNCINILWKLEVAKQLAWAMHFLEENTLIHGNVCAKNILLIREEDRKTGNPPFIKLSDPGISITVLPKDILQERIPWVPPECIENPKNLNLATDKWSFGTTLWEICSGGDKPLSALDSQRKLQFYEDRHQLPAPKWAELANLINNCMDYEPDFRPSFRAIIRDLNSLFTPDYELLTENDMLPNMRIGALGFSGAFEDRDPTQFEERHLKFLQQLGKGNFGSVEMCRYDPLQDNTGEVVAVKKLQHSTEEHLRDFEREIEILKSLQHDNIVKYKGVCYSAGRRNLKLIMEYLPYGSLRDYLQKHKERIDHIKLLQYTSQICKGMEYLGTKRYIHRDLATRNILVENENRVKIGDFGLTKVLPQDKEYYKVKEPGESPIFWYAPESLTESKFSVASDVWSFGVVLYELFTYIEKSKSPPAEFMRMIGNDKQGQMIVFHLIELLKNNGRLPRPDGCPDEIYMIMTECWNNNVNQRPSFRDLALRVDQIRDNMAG
The experiment in a line: JAK2 enzyme activity assay (Thermo Fisher Selectscreen, Z-lyte). In kind it is biochemical. To be noted: read-out: JAK2 Inhibition IC50. How it is done:
as §1
JAK2: The 2×JAK2/Tyr 06 mixture is prepared in 50 mM HEPES pH 7.5, 0.01% BRIJ-35, 10 mM MgCl2, 1 mM EGTA. The final 10 μL Kinase Reaction consists of 0.12-0.5 ng JAK2 and 2 μM Tyr 06 in 50 mM HEPES pH 7.5, 0.01% BRIJ-35, 10 mM MgCl2, 1 mM EGTA. After the one hour Kinase Reaction incubation, 5 μL of a 1:128 dilution of Development Reagent A is added.
as §2

The target of a further experiment is T3, JAK3 (a.a. 781-1124) (Homo sapiens, UniProt P52333).
T3 construct: JAK3 (a.a. 781-1124, ThermoFisher); purchased ThermoFisher
T3 sequence (P52333 781-1124): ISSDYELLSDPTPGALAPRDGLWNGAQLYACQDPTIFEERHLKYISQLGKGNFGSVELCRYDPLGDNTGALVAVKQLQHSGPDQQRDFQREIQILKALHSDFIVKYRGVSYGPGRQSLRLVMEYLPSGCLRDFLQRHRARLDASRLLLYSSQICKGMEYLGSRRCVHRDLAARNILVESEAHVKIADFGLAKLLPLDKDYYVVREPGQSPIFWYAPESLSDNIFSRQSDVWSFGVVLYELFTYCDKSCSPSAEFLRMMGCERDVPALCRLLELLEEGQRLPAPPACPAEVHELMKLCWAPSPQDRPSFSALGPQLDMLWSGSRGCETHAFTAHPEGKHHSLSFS
The experiment in a line: JAK3 enzyme activity assay (SRCtide phosphorylation, Caliper). The experiment is classed as biochemical. The settings on record: 1 uM ATP; read-out: JAK3 Inhibition IC50. How it is done:
The activity of JAK3 (a.a. 781-1124, ThermoFisher) was quantified by measuring the phosphorylation of SRCtide (FAM-GEEPLYWSFPAKKK-NH2). Kinase reactions were run in a 384-well Greiner plate with 2% final DMSO concentration under the buffer conditions of 20 mM HEPES, pH 7.5, 10 mM MgCl2, 0.01% BSA, and 0.0005% Tween-20. The kinase reaction components were 2.5 nM JAK3, 1 μM SRCtide peptide and 1 uM ATP. Examples were tested in dose-response starting at […] (11 concentrations, 3-fold serial dilution, duplicate reactions). The reactions were incubated at room temperature for 40 minutes, then stopped by adding a 1:1 volume of 30 mM EDTA in 20 mM HEPES, pH 7.5 (15 mM EDTA final). After the reaction was stopped, the phosphorylated and unphosphorylated peptides were separated and quantified using a Caliper LC3000/EZ-Reader system and HTS Well Analyzer Software (Caliper, A PerkinElmer Company, Hopkinton, Mass.). GraFit (Erithacus Software Ltd., Horley, U.K.) was used to calculate inhibitor potency by fitting dose-response data to the 4-parameter logistical IC50 equation.

Another experiment has as its target T4, Tyk-2 (Homo sapiens, UniProt P29597).
T4 construct: purchased Thermo Fisher Scientific (SelectScreen service)
The experiment in a line: Tyk-2 enzyme activity assay (Thermo Fisher Selectscreen, Z-lyte). In kind it is biochemical. To be noted: read-out: Tyk-2 Inhibition IC50. How it is done:
as §1
TYK2: The 2×TYK2/Tyr 03 mixture is prepared in 50 mM HEPES pH 6.5, 0.01% BRIJ-35, 10 mM MgCl2, 1 mM EGTA, 0.02% NaN3. The final 10 μL Kinase Reaction consists of 3.75-15 ng TYK2 and 2 μM Tyr 03 in 50 mM HEPES pH 7.0, 0.01% BRIJ-35, 10 mM MgCl2, 1 mM EGTA, 0.01% NaN3. After the one hour KinaseReaction incubation, 5 μL of a 1:4096 dilution of Development Reagent A is added.
as §2

Experiment [1] deals with IL-2 stimulated STAT5 phosphorylation on Tyr694 (JAK1/3). The experiment in a line: JAK1/3 cellular target modulation: IL-2 stimulated phospho-STAT5 in human PBMC. To be noted: IL-2 25 ng/ml, read-out: IL2-STAT5 IC50. In kind it is cell-based. An excerpt: (§3) Target modulation was based upon the ability of a compound to inhibit JAK isoform specific phosphorylation of selected substrates. IL-2 stimulated STAT5 phosphorylation on Tyr694 was used to assess JAK1/3 compound selectivity. GM-CSF stimulated STAT5 phosphorylation on Tyr694 was used to assess JAK2 compound selectivity. IFNγ stimulated STAT1 phosphorylation on Tyr701 was used to assess JAK1/2 compound selectivity. IL-12 stimulated STAT4 phosphorylation on Tyr693 was used to assess JAK2/TYK2 compound selectivity. For all four assays, human PBMC from frozen stocks were thawed, pelleted, resuspended in complete media (90% RPMI, 10% heat inactivated FBS, 10 mM HEPES, 47 μM 2-ME, pen/strep) and placed in wells of a 96 well V-bottom plate at 200,000 per well in 120 μl complete media. Compounds were added as 15 μl per well of 10× working stock solutions in complete media with 1% DMSO (or medium with 1% DMSO for controls) and placed on a plate shaker in a 37° C. incubator with 5% CO2 for 1 hour with gentle shaking (setting of 3). Stimulation used the addition of soluble cytokines. For the JAK1/3 phospho-STAT5 assay, 15 μl of 10× working stock recombinant human IL-2 was added to a final concentration of 25 ng/ml. For the JAK2 phospho-STAT5 assay, 15 μl of 10× working stock recombinant human GM-CSF was added to a final concentration of 5 ng/ml. For the JAK1/2 phospho-STAT1 assay, 15 μl of 10× working stock of recombinant human IFNγ was added to a final concentration of 10 ng/ml. For the JAK2/TYK2 phospho-STAT4 assay, 15 μl of 10× working stock of recombinant human IL-12 was added to a final concentration of 1.7 ng/ml. Plates were then placed back on the plate shaker in the incubator for an additional 5, 5, 10, and 25 minutes respectively upon which the plates were removed from the incubator, sealed with a plate sealer and the cells pelleted at 400×g for 5 minutes. After pelleting, the media was removed by aspiration and the cells were lysed in assay specific cell lysis buffer. The levels of phospho-STAT5 were determined using a Phospho (Tyr694)STAT5a,b Whole Cell Lysate kit from Meso Scale Discovery. Levels of phospho-STAT1 were determined using a CST-PathScan Phospho-STAT1 (Tyr701) Sandwich ELISA kit. Levels of phospho-STAT4 were determined using a Phospho-STAT4 (Tyr693) Whole Cell Lysate kit from Meso Scale Discovery.

Experiment [2] relates to IFNγ stimulated STAT1 phosphorylation on Tyr701 (JAK1/2). The experiment in a line: JAK1/2 cellular target modulation: IFNγ stimulated phospho-STAT1 in human PBMC. The experiment is classed as cell-based. To be noted: IFNγ 10 ng/ml, read-out: Infγ-STAT1 IC50.
Description: as §3

In experiment [3] the test system is IL-12 stimulated STAT4 phosphorylation on Tyr693 (JAK2/TYK2). The experiment in a line: JAK2/TYK2 cellular target modulation: IL-12 stimulated phospho-STAT4 in human PBMC. The settings on record: IL-12 1.7 ng/ml, read-out: IL12-STAT4 IC50. The experiment is classed as cell-based.
Description: as §3

The IC50 is the concentration needed to halve the response being measured.

T1 sequence (P23458 whole entry): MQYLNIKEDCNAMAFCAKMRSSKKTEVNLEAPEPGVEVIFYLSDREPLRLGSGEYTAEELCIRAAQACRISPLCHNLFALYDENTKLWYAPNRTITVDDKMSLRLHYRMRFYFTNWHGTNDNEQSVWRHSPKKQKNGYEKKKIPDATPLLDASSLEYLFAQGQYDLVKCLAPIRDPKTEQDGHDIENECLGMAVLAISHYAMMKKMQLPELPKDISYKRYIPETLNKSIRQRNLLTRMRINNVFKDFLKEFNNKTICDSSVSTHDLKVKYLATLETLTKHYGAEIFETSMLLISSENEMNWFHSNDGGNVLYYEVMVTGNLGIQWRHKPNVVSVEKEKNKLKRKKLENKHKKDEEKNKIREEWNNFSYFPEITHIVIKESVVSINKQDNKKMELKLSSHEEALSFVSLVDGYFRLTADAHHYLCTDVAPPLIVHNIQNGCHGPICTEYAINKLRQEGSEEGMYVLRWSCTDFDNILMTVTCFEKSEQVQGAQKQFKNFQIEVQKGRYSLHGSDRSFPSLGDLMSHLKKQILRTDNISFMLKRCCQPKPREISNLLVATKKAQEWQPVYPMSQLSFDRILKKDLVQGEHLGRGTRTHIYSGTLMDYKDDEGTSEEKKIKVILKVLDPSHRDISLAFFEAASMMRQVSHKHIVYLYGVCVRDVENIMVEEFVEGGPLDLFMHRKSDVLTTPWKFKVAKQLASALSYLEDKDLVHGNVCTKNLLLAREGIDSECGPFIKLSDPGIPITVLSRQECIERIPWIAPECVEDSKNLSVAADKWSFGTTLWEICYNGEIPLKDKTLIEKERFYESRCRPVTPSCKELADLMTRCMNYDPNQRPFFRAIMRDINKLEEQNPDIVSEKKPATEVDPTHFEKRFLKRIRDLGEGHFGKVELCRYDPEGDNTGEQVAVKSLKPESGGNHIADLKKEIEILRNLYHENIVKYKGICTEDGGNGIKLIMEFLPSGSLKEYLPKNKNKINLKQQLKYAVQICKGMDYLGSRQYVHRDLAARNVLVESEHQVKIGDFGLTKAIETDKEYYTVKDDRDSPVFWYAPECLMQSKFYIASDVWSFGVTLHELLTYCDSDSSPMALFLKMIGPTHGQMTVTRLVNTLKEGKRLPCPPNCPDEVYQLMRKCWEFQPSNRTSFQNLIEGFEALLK
T4 sequence (P29597 whole entry): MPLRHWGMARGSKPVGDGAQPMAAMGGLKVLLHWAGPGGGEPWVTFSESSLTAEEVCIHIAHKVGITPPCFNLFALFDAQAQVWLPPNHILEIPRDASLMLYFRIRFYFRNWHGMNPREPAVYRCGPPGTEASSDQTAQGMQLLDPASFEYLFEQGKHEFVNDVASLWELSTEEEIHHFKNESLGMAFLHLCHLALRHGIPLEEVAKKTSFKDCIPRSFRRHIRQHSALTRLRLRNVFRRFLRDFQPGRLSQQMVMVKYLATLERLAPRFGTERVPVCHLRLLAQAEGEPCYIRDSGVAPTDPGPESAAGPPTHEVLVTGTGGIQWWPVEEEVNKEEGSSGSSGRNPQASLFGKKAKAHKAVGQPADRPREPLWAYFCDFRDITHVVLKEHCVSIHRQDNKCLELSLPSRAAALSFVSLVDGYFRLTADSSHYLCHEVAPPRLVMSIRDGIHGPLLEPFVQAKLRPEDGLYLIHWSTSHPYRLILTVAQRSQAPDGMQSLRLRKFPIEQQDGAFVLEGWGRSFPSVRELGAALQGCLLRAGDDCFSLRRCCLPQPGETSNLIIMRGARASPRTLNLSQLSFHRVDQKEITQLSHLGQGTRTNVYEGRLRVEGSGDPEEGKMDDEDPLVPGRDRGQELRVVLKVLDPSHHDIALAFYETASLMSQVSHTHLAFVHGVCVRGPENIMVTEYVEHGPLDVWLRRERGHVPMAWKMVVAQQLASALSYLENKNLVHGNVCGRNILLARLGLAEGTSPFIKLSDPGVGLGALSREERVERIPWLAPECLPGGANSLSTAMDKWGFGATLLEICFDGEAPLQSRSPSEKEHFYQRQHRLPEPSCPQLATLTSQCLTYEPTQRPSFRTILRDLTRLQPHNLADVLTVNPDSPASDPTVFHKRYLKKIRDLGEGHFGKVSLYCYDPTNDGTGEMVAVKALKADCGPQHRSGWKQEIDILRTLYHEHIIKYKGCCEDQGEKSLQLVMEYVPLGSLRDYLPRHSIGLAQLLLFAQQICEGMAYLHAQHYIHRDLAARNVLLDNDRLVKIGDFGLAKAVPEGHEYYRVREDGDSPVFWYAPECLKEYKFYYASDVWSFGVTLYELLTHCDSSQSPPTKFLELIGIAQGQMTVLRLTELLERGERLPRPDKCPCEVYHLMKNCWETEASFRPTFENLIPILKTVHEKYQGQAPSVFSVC

For `CCCS(=O)(=O)N[C@H]1C[C@@H](Nc2c(-c3nnc(C)o3)cnc3[nH]ccc23)C1` [Example 82, N-((1s,3s)-3-((5-(5-methyl-1,3,4-oxadiazol-2-yl)-1H-pyrrolo[2,3-b]pyridin-4-yl)amino)cyclobutyl)propane-1-sulfonamide], the IC50 is 10 to 100 nM at JAK1; 10 to 100 nM at JAK2; 100 to 1000 nM at JAK3 (a.a. 781-1124); 100 to 1000 nM at Tyk-2; 100 to 1000 nM in experiment [1]; more than 1000 nM in experiment [2]. Also, the IC50 in experiment [3] is more than 1000 nM.

For the compound `Cc1nnc(-c2cnc3[nH]ccc3c2N[C@H]2C[C@@H](NS(=O)(=O)c3cccc(C#N)c3)C2)o1` [Example 81, 3-cyano-N-((1s,3s)-3-((5-(5-methyl-1,3,4-oxadiazol-2-yl)-1H-pyrrolo[2,3-b]pyridin-4-yl)amino)cyclobutyl)benzenesulfonamide], the IC50 at JAK1 is not above 10 nM; at JAK2, not above 10 nM; at JAK3 (a.a. 781-1124) it was 10 to 100 nM; at Tyk-2, 10 to 100 nM; in experiment [1] it was not above 100 nM; in experiment [2], 100 to 1000 nM. Besides, in experiment [3], the IC50 was more than 1000 nM.

As for `Cc1cnc(-c2cnc3[nH]ccc3c2N[C@H]2C[C@@H](NS(=O)(=O)c3cccc(C#N)c3)C2)s1` [Example 74, 3-cyano-N-((1s,3s)-3-((5-(5-methylthiazol-2-yl)-1H-pyrrolo[2,3-b]pyridin-4-yl)amino)cyclobutyl)benzenesulfonamide], the IC50 at JAK1 was not above 10 nM; on JAK2, 10 to 100 nM; on JAK3 (a.a. 781-1124), not above 10 nM; at Tyk-2, 10 to 100 nM; in experiment [1], not above 100 nM; in experiment [2], 100 to 1000 nM. In experiment [3], the half-maximal inhibitory concentration (IC50) lay within 100 to 1000 nM.

With `CNC(=O)c1ccnc(-c2cnc3[nH]ccc3c2N[C@H]2C[C@@H](NS(=O)(=O)c3cccc(C#N)c3)C2)c1` [Example 66, 2-(4-(((1s,3s)-3-((3-cyanophenyl)sulfonamido)cyclobutyl)amino)-1H-pyrrolo[2,3-b]pyridin-5-yl)-N-methylisonicotinamide], the IC50 was not above 10 nM at JAK1; 10 to 100 nM at JAK2; 100 to 1000 nM on JAK3 (a.a. 781-1124); 10 to 100 nM at Tyk-2; 100 to 1000 nM in experiment [1]; more than 1000 nM in experiment [2]. In addition, the IC50 in experiment [3] was more than 1000 nM.

In the case of `N#Cc1cccc(S(=O)(=O)N[C@H]2C[C@@H](Nc3c(-c4nnco4)cnc4[nH]ccc34)C2)c1` [Example 79, N-((1s,3s)-3-((5-(1,3,4-oxadiazol-2-yl)-1H-pyrrolo[2,3-b]pyridin-4-yl)amino)cyclobutyl)-3-cyanobenzenesulfonamide], the IC50 is not above 10 nM on JAK1; not above 10 nM on JAK2; 10 to 100 nM on JAK3 (a.a. 781-1124); 10 to 100 nM at Tyk-2; 100 to 1000 nM in experiment [1]; 100 to 1000 nM in experiment [2]. Besides, the IC50 in experiment [3] is more than 1000 nM.

Turning to `CCCS(=O)(=O)N[C@H]1C[C@@H](Nc2c(-c3nccs3)cnc3[nH]ccc23)C1` [Example 70, N-((1s,3s)-3-((5-(thiazol-2-yl)-1H-pyrrolo[2,3-b]pyridin-4-yl)amino)cyclobutyl)propane-1-sulfonamide], the IC50 is not above 10 nM at JAK1; 10 to 100 nM at JAK2; 10 to 100 nM on JAK3 (a.a. 781-1124); 10 to 100 nM at Tyk-2; not above 100 nM in experiment [1]; 100 to 1000 nM in experiment [2]. In experiment [3], the IC50 is more than 1000 nM.

For `CNC(=O)c1csc(-c2cnc3[nH]ccc3c2N[C@H]2C[C@@H](NS(=O)(=O)c3cccc(C#N)c3)C2)n1` [Example 21, 2-(4-(((1s,3s)-3-((3-cyanophenyl)sulfonamido)cyclobutyl)amino)-1H-pyrrolo[2,3-b]pyridin-5-yl)-N-methylthiazole-4-carboxamide], the IC50 was not above 10 nM on JAK1; not above 10 nM at JAK2; 10 to 100 nM at JAK3 (a.a. 781-1124); 10 to 100 nM on Tyk-2; 100 to 1000 nM in experiment [1]; 100 to 1000 nM in experiment [2]. Moreover, in experiment [3], the IC50 was more than 1000 nM.

Regarding `CCCS(=O)(=O)N[C@H]1C[C@@H](Nc2c(-c3nc(C(=O)NC)cs3)cnc3[nH]ccc23)C1` [Example 72, N-methyl-2-(4-(((1s,3s)-3-(propylsulfonamido)cyclobutyl)amino)-1H-pyrrolo[2,3-b]pyridin-5-yl)thiazole-4-carboxamide], the IC50 was 10 to 100 nM at JAK1; 10 to 100 nM at JAK2; 10 to 100 nM on JAK3 (a.a. 781-1124); 100 to 1000 nM at Tyk-2; 100 to 1000 nM in experiment [1]; more than 1000 nM in experiment [2]. In addition, the IC50 in experiment [3] is more than 1000 nM.

On to `N#Cc1cccc(S(=O)(=O)N[C@H]2C[C@@H](Nc3c(-c4ncco4)cnc4[nH]ccc34)C2)c1` [Example 7, 3-cyano-N-((1s,3s)-3-((5-(oxazol-2-yl)-1H-pyrrolo[2,3-b]pyridin-4-yl)amino)cyclobutyl)benzenesulfonamide], for which the IC50 is not above 10 nM at JAK1; not above 10 nM on JAK2; 10 to 100 nM on JAK3 (a.a. 781-1124); 10 to 100 nM at Tyk-2; 100 to 1000 nM in experiment [1]; 100 to 1000 nM in experiment [2]. The IC50 in experiment [3] is more than 1000 nM.
